Experimental data reported in US10682415B2, “Thermogel formulation for combination drug delivery” (Wisconsin Alumni Research Foundation, priority 2013, dated 2020).

Assays:
[1] = system: ES-2-luc human ovarian cancer cells; experiment: In vitro cytotoxicity in ES-2-luc cells
[2] = neutral pH; cited from earlier work
[3] = Drug release kinetics of thermogel at 37° C. (cassette MWCO 20,000, first-order model); type: physicochemical
Protocol: The drug release kinetics of the composition at 37° C. was evaluated. Data is shown below in Table 1-3. […] Each cassette (MWCO 20,000) contained 0.3 mL of Triogel (n=3). […] The profile of the release kinetics was fit into a first-order model (Prism ver 5.0), as illustrated in FIG. 2.
The release kinetics of 1-drug thermogels (37° C.) were analyzed. Separately, compositions having 6 mg, 6 mg, and 3 mg of PTX, 17-AAG, and RAPA mixed with 60, 60, and 30 mg of polymers, respectively, in 1.0 mL of water were evaluated. Each cassette (MWCO 20,000) contained 0.3 mL of Thermogel (n=3). Profile of release kinetics was fit into a first-order model (Prism ver 5.0).

[4] = Drug content incorporated in thermogel quantified by RP-HPLC; type: physicochemical
Protocol: (§1) The drug delivery system containing a combination of three drugs can be prepared as follows. Paclitaxel (PTX; 6 mg), 17-AAG (6 mg), and rapamycin (RAPA; 3 mg) were combined with 1.5 mL of tent-Butanol (TBA) to obtain a clear solution at 60° C. Separately, cold water was added to PLGA1.5k-PEG1k-PLGA1.5k and the mixture was incubated at refrigeration temperature (4° C.) for 2-3 days to obtain 100 mg/mL of polymer solution. The polymer solution (1.5 mL) was rapidly added to 1.5 mL of drug/TBA mixture (50% TBA). The mixture was rapidly vortexed and warmed to 60° C. for less than one minute to prevent phase separation. The mixture was rapidly frozen with ethanol/dry ice (−72° C.) for 1 hour and lyophilized for 24 hours (below 0.8 bar at −45° C.).
(§2) Samples were diluted with cold water and kept at 4° C. Liquefied samples were passed through about […] (e.g., clear solution (x)) to about 0.2 μm (e.g., clear solution (y)) of a regenerated cellulose membrane filter (RC filter) at 4° C. and concentrations were quantified using RP-HPLC.

[5] = Initial gel formation experiments (stable thermogel with PLGA-PEG-PLGA); type: physicochemical; conditions: for Thermogel Formation: drug(s) with PLGA-PEG-PLGA polymer, about 1 mg drug per 10 mg polymer
[6] = Rehydration time, gelation time and physical observation of lyophilized sample and gel; type: physicochemical
Protocol: as §1, §2
In general, an elegant lyophilized cake can improve rehydration time and solubility of the lyophilized cake in aqueous solution.

C=CCNC1=C2C[C@@H](C)C[C@H](OC)[C@H](O)[C@@H](C)/C=C(\C)[C@H](OC(N)=O)[C@@H](OC)/C=C\C=C(/C)C(=O)NC(=CC1=O)C2=O [17-AAG, 17-allylamino-17-demethoxygeldanamycin]
cytotoxic effect (in words) [1]: did not induce significant cytotoxic effect
IC50 ([1]; drug(s) dissolved in a mixture of DMSO and medium): 933.6 ± 1.8 nM
water solubility [2]: about 0.1 mg/mL

CC(=O)O[C@H]1C(=O)[C@@]2(C)[C@H]([C@H](OC(=O)c3ccccc3)[C@]3(O)C[C@H](OC(=O)[C@H](O)[C@@H](NC(=O)c4ccccc4)c4ccccc4)C(C)=C1C3(C)C)[C@]1(OC(C)=O)CO[C@@H]1C[C@@H]2O [PTX, paclitaxel]
k: release kinetic constant ([3]; release from Triogel (6 mg/6 mg/3 mg PTX/17-AAG/RAPA, 150 mg polymer, 1 mL water), n = 3): 0.0577 ± 0.0230 h⁻¹
k (release kinetic constant) ([3]; release from two drug thermogel PTX/17-AAG (6 mg/6 mg in 120 mg polymer, 1 mL water)): 0.2037 ± 0.0575 h⁻¹
k (release kinetic constant) ([3]; release from two drug thermogel PTX/RAPA (6 mg/3 mg in 90 mg polymer, 1 mL water)): 0.1035 ± 0.0354 h⁻¹
k (release kinetic constant) ([3]; single drug compositions, n = 3): 0.0682 ± 0.0112 h⁻¹
PTX gel incorporation by RP-HPLC analysis ([4]; 6 mg PTX in 150 mg of polymer and 50 wt. % TBA): 5.33 mg
Final level of drug, PTX ([4]; single, two and three drug compositions, initial level 6.0 mg/mL): 5.8 ± 0.5 mg/mL
Thermogel Formation [5]: Yes
time to form a gel at room temperature ([6]; room temperature): less than two minutes
time gel-like form is retained ([6]; room temperature, 6 mg PTX in 150 mg of polymer): more than two weeks
Physical obs. of gel ([6]; single, two and three drug compositions): Good

CC1=C2C[C@H]3[C@@H](CC=C4C[C@@H](O)CC[C@@]43C)[C@@H]2CC[C@]12O[C@@H]1C[C@H](C)CN[C@H]1[C@H]2C [Cyclopamine (CYP), cyclopamine]
Thermogel Formation [5]: No
stable thermogel formation / gel integrity ([5]; warming the 4° C. solution with PLGA-PEG-PLGA to room temperature / 37° C.): a stable thermogel was unable to be prepared

CO[C@H]1C[C@@H]2CC[C@@H](C)[C@@](O)(O2)C(=O)C(=O)N2CCCC[C@H]2C(=O)O[C@H]([C@H](C)C[C@@H]2CC[C@@H](O)[C@H](OC)C2)CC(=O)[C@H](C)/C=C(\C)[C@@H](O)[C@@H](OC)C(=O)[C@H](C)C[C@H](C)/C=C/C=C/C=C/1C [RAPA, rapamycin]
cytotoxic effect (in words) [1]: did not induce significant cytotoxic effect
